Results taken from US10227347B2, “Purinyl-N-hydroxyl pyrimidine formamide derivative, preparation methods and uses thereof” (Guizhou Bailing Group Pharmaceutical CO., LTD., priority 2015, dated 2019).
Like-named read-outs stand apart in the source and are kept apart here.

Legend:
PI3Kα = target: T1, PI3Kα (Homo sapiens, UniProt P42336); assay: PI3Kα activity inhibition (Kinase-Glo); type: biochemical
T1 construct: purchased Invitrogen PV4788
Summary of the method: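 Kinase-Glo luminescence read-out of remaining ATP after PI3K reaction with PIP2 and ATP substrates in 50 mM HEPES pH 7.5, 3 mM MgCl2, 1 mM EGTA, 100 mM NaCl, 0.03% CHAPS, 2 mM DTT. Incubated at ambient temperature, 1 h for PI3Kα, 2 h for PI3Kδ. IC50 from four-parameter fit of % inhibition versus concentration.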

[1] = tested on: A2780s cells (ovarian cancer); assay: Cell proliferation inhibition, A2780s (MTT); type: cell-based; conditions: Homo sapiens
Summary of the method: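 Cells seeded at 2000-3000/well; adherent lines dosed after attachment, then 96 h incubation with compound. Viability read by MTT for solid-tumour lines (HCT116, A2780s) and CCK-8 for MV4-11; IC50 from four-parameter logistic fit of inhibition ratio versus concentration.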

HDAC2 = target: T2, HDAC2 (Homo sapiens, UniProt Q92769); assay: HDAC2 enzyme inhibition (Lys-Ac-AMC); type: biochemical; conditions: Table 4, graded
T2 construct: purchased BPS Bioscience 50002
T2 sequence (Q92769 whole entry, species assumed): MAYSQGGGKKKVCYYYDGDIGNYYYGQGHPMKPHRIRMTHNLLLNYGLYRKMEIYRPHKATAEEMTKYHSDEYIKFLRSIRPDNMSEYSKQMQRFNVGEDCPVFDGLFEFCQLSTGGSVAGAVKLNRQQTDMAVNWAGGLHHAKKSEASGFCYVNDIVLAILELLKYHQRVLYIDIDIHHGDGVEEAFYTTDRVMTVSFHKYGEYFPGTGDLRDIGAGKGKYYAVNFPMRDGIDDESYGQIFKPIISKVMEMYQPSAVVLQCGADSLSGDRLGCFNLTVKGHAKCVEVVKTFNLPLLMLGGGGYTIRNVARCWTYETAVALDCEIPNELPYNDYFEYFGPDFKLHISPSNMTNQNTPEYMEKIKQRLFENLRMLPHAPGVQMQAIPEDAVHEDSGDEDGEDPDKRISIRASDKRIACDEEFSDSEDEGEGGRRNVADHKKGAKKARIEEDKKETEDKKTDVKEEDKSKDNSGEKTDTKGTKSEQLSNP
Description: (§1) Determining the inhibition capability of HDAC through the substrate method of fluorophore coupled acetylized peptide fragment (Lys-Ac-AMC). HDAC2-11 proteins of subtypes are purchased from BPS Bioscience Company with the Art. […] The reaction buffer system is a modified Tris buffer (pH7.0). The small molecule compounds are prepared and dissolved with 100% DMSO. […] Adding the compound into the reaction wells of the 384 well plate at the designed concentration, then adding 15 μL HDAC enzyme solution into the reaction wells (adding 15 μL blank buffer into the control well 0) for incubation under ambient temperature for 15 min; then adding 10 μL substrate solution to start reaction.
(§2) Analyzing the result data with the software GraphPad Prism and calculating the value of IC50 as per the formula: Y=background data+(top data−background data)/(1+10^((Log IC50−X)*rate of curve)). Where, Y refers to the inhibition ratio (%) and X refers to the compound concentration.

HDAC3 = target: T3, HDAC3 (Homo sapiens, UniProt O15379); assay: HDAC3 enzyme inhibition (Lys-Ac-AMC); type: biochemical; conditions: Table 4, graded
T3 construct: purchased BPS Bioscience 50003
T3 sequence (O15379 whole entry, species assumed): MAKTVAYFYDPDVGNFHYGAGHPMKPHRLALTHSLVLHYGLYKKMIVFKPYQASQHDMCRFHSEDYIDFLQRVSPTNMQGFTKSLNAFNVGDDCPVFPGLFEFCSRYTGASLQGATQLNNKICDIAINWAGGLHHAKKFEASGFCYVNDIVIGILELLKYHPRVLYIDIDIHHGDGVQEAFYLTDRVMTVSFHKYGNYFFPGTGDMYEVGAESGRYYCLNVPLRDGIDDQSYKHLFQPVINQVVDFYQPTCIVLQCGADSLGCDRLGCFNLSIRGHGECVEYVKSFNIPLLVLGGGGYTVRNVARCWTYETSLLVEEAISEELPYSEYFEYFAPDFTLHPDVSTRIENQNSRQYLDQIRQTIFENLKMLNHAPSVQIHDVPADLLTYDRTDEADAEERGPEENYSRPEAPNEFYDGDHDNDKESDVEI
T3 sequence (Q9Y618 395-489 partner limits assumed, species assumed): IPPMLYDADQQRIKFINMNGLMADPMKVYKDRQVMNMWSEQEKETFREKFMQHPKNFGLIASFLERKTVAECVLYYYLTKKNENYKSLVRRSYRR
Description: as §1, §2

HDAC4 = target: T4, HDAC4 (Homo sapiens, UniProt P56524); assay: HDAC4 enzyme inhibition (Lys-Ac-AMC); type: biochemical; conditions: Table 4, graded
T4 construct: purchased BPS Bioscience 50004
T4 sequence (P56524 627-1084 limits assumed): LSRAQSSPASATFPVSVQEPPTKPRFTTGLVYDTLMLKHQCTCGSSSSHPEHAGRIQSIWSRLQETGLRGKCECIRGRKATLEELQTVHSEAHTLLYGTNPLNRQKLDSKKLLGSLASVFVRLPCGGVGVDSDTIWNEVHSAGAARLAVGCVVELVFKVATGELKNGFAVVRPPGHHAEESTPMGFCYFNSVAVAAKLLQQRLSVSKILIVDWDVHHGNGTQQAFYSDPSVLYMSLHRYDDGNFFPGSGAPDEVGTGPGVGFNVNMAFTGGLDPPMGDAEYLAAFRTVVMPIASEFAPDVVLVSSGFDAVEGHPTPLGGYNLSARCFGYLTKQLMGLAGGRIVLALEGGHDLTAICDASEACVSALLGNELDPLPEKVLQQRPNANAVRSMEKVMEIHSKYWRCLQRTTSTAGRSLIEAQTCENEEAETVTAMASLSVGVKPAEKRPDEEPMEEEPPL
Description: as §1, §2

HDAC7 = target: T5, HDAC7 (Homo sapiens, UniProt Q8WUI4); assay: HDAC7 enzyme inhibition (Lys-Ac-AMC); type: biochemical; conditions: Table 4, graded
T5 construct: purchased BPS Bioscience 50007
T5 sequence (Q8WUI4 518-952 limits assumed): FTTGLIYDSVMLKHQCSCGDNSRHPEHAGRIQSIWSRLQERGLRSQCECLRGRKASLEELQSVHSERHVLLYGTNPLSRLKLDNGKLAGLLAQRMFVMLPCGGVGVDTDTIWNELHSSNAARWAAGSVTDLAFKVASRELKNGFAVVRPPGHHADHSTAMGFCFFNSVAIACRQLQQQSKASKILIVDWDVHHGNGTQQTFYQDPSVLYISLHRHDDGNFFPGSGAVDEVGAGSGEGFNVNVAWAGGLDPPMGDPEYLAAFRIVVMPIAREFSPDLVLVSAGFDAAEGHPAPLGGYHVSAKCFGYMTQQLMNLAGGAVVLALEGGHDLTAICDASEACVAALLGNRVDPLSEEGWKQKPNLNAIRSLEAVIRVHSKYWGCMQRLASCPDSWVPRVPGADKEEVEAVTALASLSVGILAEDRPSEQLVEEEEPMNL
Description: as §1, §2

HDAC9 = target: T6, HDAC9 (Homo sapiens, UniProt Q9UKV0); assay: HDAC9 enzyme inhibition (Lys-Ac-AMC); type: biochemical; conditions: Table 4, graded
T6 construct: purchased BPS Bioscience 50009
T6 sequence (Q9UKV0 1-1066 isoform Q9UKV0-5): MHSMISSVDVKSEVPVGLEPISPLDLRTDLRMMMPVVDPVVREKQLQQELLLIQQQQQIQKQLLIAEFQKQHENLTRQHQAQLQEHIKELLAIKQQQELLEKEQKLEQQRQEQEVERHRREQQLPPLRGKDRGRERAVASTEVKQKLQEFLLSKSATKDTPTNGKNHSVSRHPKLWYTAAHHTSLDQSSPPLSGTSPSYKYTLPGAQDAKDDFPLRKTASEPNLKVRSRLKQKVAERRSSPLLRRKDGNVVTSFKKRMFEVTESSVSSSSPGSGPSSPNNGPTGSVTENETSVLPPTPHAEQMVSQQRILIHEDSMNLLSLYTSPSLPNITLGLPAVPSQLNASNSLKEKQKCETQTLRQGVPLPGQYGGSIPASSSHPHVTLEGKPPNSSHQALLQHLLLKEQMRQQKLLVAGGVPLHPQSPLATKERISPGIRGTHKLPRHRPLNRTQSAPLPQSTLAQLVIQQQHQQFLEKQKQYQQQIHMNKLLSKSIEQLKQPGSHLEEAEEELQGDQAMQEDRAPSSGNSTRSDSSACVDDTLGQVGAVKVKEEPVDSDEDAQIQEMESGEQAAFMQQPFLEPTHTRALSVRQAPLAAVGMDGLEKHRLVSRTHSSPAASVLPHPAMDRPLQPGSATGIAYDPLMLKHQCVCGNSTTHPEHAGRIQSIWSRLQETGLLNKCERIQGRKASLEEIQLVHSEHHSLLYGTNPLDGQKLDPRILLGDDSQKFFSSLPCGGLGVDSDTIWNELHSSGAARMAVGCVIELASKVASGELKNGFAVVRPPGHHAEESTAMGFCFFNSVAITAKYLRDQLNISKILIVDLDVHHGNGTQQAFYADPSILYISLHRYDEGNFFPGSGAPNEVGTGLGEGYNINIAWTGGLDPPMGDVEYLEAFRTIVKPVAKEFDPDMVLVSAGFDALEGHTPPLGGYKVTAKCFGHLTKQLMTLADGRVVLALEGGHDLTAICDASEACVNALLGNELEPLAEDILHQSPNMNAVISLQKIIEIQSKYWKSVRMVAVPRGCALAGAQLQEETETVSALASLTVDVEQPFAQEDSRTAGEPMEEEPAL
Description: as §1, §2

[2] = tested on: MV4-11 subcutaneous tumor; conditions: 10 mg/kg i.v., once per two days, 22 days
Text: During drug administration, measuring the weight and gross tumor volume of the mice per 2 days and keeping a record. The calculation formula is as V=π/6×A^2×B, where, where, V=gross tumor volume (mm^3), A=tumor width (mm) and B=tumor length (mm). Observing and keeping a record for the survival condition of the tested animals. After drug discontinuance, killing the mice through cervical dislocation and peeling off their tumors as per the operation specification of animal experiment. Evaluating the inhibition capability of the compounds to tumor activities by calculating the tumor inhibitory rate with the formula as: tumor inhibitory rate=(1−tumor weight of treatment group/tumor weight of control group)×100%. Analyzing and comparing the difference between each treatment group and control group with the method of t-test. The grading of significance level of difference is: ***, P<0.001; **, P<0.01; *, P<0.05; no statistical significance (ns), P>0.05.

[3] = tested on: U266 cells (multiple myeloma); assay: Proliferation inhibition, U266 (cck-8); type: cell-based; conditions: Homo sapiens, U-266; 96 h incubation
Text: (§3) Calculating the value of IC50 as per the formula: Y=background data+(top data−background data)/(1+10^((Log IC50−X)*rate of curve)). Where, Y refers to the inhibition ratio (%) and X refers to the compound concentration.

[4] = tested on: OCI-LY1 cells (B-cell lymphoma); assay: Proliferation inhibition, OCI-LY1 (cck-8); type: cell-based; conditions: Homo sapiens, 96 h incubation
Text: as §3

[5] = tested on: HBL-1 cells (B-cell lymphoma); assay: Proliferation inhibition, HBL-1 (cck-8); type: cell-based; conditions: Homo sapiens, HBL1; 96 h incubation
Text: as §3

[6] = tested on: human B-cell lymphoma Raji subcutaneous tumor; assay: Subcutaneous tumor model, human B-cell lymphoma Raji; conditions: once per 2 days, intraperitoneal
[7] = Table 1, graded, read-out: PI3Kα IC50
[8] = Table 4, graded, read-out: PI3Kα IC50
[9] = 96 h incubation, read-out: Proliferation IC50, Ovarian cancer A2780s

T1 sequence (P42336 whole entry, species assumed): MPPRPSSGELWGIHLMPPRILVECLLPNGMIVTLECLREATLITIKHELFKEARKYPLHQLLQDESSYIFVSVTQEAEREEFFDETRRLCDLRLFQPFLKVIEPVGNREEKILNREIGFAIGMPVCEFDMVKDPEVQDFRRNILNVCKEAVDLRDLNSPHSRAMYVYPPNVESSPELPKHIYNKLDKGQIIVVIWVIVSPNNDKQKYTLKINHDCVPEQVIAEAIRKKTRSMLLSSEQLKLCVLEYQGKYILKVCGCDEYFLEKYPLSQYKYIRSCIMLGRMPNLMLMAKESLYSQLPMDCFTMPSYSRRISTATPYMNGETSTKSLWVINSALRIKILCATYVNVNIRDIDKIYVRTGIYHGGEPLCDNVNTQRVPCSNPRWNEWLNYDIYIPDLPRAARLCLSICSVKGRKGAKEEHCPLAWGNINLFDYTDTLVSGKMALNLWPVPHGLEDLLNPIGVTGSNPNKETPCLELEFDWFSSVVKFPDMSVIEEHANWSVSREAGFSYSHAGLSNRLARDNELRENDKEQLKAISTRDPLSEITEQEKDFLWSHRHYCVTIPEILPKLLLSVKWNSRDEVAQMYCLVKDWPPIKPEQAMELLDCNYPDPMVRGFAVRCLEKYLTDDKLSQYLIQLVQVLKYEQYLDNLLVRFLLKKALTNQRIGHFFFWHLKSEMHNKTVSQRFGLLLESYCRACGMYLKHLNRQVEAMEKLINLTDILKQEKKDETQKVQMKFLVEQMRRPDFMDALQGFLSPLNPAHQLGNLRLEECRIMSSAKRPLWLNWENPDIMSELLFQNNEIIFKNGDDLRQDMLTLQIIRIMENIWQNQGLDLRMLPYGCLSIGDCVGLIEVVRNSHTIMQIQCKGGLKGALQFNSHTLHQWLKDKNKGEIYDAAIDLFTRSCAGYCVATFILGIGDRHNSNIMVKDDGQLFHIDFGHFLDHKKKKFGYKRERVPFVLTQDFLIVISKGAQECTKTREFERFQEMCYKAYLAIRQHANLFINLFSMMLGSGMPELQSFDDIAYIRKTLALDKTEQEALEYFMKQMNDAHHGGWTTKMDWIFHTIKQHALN
T1 sequence (P27986 whole entry partner, species assumed): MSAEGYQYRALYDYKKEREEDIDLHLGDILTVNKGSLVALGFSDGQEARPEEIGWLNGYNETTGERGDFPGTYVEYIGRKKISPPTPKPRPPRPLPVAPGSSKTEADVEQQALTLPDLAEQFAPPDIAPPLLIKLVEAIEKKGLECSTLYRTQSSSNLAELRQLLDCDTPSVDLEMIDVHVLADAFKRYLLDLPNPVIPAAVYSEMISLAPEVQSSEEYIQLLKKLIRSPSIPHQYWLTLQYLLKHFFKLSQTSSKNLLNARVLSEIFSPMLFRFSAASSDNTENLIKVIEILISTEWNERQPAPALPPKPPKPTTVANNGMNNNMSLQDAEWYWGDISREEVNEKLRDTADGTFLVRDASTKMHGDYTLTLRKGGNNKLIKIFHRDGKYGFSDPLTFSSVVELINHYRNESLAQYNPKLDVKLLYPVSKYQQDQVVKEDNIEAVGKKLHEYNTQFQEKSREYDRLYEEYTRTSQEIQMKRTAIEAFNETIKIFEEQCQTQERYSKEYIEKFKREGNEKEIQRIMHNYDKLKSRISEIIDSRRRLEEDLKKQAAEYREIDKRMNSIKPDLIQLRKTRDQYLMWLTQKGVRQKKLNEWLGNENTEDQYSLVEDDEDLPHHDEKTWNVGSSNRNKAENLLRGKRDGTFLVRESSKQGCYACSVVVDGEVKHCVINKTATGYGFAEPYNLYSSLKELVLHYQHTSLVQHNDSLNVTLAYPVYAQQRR

Row | SMILES | IC50 (PI3Kα; [7]) [nM] | IC50 (PI3Kα; [8]) [nM] | IC50 [1, 9] [nM] | IC50 (HDAC2) [nM] | IC50 (HDAC3) [nM] | IC50 (HDAC4) [nM] | IC50 (HDAC7) [nM] | IC50 (HDAC9) [µM] | Final survival condition (survived individuals/total individuals) [2] | IC50 [3] [nM] | IC50 [4] [nM] | IC50 [5] [nM] | Death ([6]; 10 mg/kg) | Inhibitory rate (%) ([6]; 10 mg/kg) | also measured
1 | COc1ccc(-c2nc(N3CCOCC3)c3nc(CN(C)c4ncc(C(=O)NO)cn4)n(C)c3n2)cn1 [CLJ-1, 2-(((2-(6-methoxypyridine-3-yl)-9-methyl-6-morpholine-9H-purine-8-yl))methyl(methyl)amino)-N-hydroxyl pyrimidine-5-formamide] | 1000 to 10000 | 1000 to 10000 | 0.1 to 10 | 1 to 100 | 1 to 100 | 1000 to 10000 | 1000 to 10000 | 1 to 10 | 5/6 | 0.1 to 1 | 10 to 100 | 1 to 10 | – | – | –
2 | CN(Cc1nc2c(N3CCOCC3)nc(-c3cnc(N)nc3)nc2n1C)c1ncc(C(=O)NO)cn1 [CLJ-11, 2-(((2-(2-aminopyrimidine-5-yl)-9-methyl-6-morpholine-9H-purine-8-yl))methyl(methyl)amino)-N-hydroxyl pyrimidine-5-formamide] | < 100 | 1 to 100 | 10 to 100 | 1 to 100 | 1 to 100 | 100 to 1000 | 100 to 1000 | 1 to 10 | 4/6 | 10 to 100 | 100 to 1000 | 10 to 100 | – | – | IC50 (PI3Kα; read-out: inhibition value IC50 to the activity of PI3Kα): < 100 nM; Tumor inhibitory rate (%) [2]: 45.1%
3 | COc1ccc(-c2nc(N3CCOCC3)c3nc(CN(C)c4ncc(C(=O)NO)cn4)n(C)c3n2)cc1 [CLJ-29, 2-(((2-(4-methoxyphenyl)-9-methyl-6-morpholine-9H-purine-8-yl))methyl(methyl)amino)-N-hydroxyl pyrimidine-5-formamide] | > 10000 | > 10000 | 0.1 to 10 | 1 to 100 | 1 to 100 | 1000 to 10000 | 1000 to 10000 | 1 to 10 | 4/6 | 0.1 to 1 | 1 to 10 | 1 to 10 | – | – | IC50 ([1]; read-out: IC50 to proliferation of A2780s cells): 0.1 to 10 nM
4 | CN(Cc1nc2c(N3CCOCC3)nc(-c3ccc(N)cc3)nc2n1C)c1ncc(C(=O)NO)cn1 [CLJ-44] | 1000 to 10000 | 1000 to 10000 | 0.1 to 10 | 1 to 100 | 1 to 100 | 1000 to 10000 | 1000 to 10000 | 1 to 10 | 6/6 | 1 to 10 | 10 to 100 | 1 to 10 | 0/6 | 97.34 | Death ([6]; 5 mg/kg): 0/6; Inhibitory rate (%) ([6]; 5 mg/kg): 76.96%; Death ([6]; 20 mg/kg): 0/6; Inhibitory rate (%) ([6]; 20 mg/kg): 99.29%
5 | Cc1[nH]c2ccccc2c1CCNCc1ccc(/C=C/C(=O)NO)cc1 [LBH589, panobinostat, reference compound] | – | > 10000 | 0.1 to 10 | – | – | – | – | – | – | 1 to 10 | 10 to 100 | 1 to 10 | 0/6 | 54.93 | –
